PubChem BioAssay AID1963986 (Molecular Pharmacology Branch, DTP, NCI, 2024)
Where “and” joins values, the source holds several entries; their conditions need not be identical. Equal values may be shown once.

Tested on: 171881-019-R-J1-PDC tumor spheroid viability
Assay: Anticancer human tumor 171881-019-R-J1-PDC patient-derived invasive breast carcinoma cell line growth inhibition [PI3K]
Settings: spheroids with HUVEC and MSC; for viability, T/C: stronger effect = lower value
From the text: Combinatorial screen of targeted agents with the PI3K inhibitors inavolisib, alpelisib, duvelisib, and copanlisib in multi-cell type tumor spheroids
A high-throughput screen of multi-cell type tumor spheroids was designed to identify active combinations of targeted small molecules and PI3K pathway inhibitors. Complex spheroids include a stromal component modeled by human endothelial cells (HUVEC) and fibroblasts modeled by human mesenchymal stem cells (MSCs). The concentration ranges selected for each drug and investigational agent were based upon clinically achievable concentrations if the clinical Cmax of the agent was known.
Compounds. The drugs and investigational agents: inavolisib (NSC800729), alpelisib (NSC765974), duvelisib (NSC772469), copanlisib (NSC816437), ipatasertib (NSC767898), afuresertib (NSC778305), talazoparib (NSC767125), sapanisertib (NSC764658), selumetinib (NSC741078), tovorafenib (DAY101, NSC766906), vemurafenib (NSC761431), ravoxertinib (NSC781343), sotorasib (NSC818433), MRTX1133 (NSC 836407), abemaciclib (NSC 768073), palbociclib (NSC758247), venetoclax (NSC 766270), SY5609 (NSC837396), enzalutamide (NSC755605), and darolutamide (NSC825331), were obtained from the National Cancer Institute (NCI) Developmental Therapeutics Program Chemical Repository. The FDA-approved anticancer drug set is available from the NCI Developmental Therapeutics Program. […] The stock solutions were prepared in dimethyl sulfoxide (DMSO, Sigma-Aldrich, St. Louis, MO, cat. D2650) at 800-fold the tested concentration and stored at -70 degrees C prior to their use. All drugs and investigational agents were tested over a range starting from a high concentration at or near the clinical Cmax and decreasing in half-log increments. If the clinical Cmax for an agent had not been determined, the highest concentration tested was 10 microM.
Cell Culture. All cells were maintained in an incubator at 37 degrees C and 5% CO2 with 95% humidity. The PDC lines were cultured according to standard operating procedures established by the NCI PDMR (https://pdmr.cancer.gov/sops/default.htm). All PDCs were thawed and cultured in Matrigel-coated flasks prepared with a working solution of 1X Ham's F-12 nutrient mix, without supplementation (Invitrogen, Waltham, MA, cat. 11765054), 100 U/mL penicillin-streptomycin (Invitrogen, cat. 15140122), and 2.5% Matrigel (Corning Inc., Corning, NY, cat. 354248) for the first three passages. The 354836-022-R-J1-PDC, 475296-252-R-J1-PDC, and 997726-040-R-J2-PDC lines were cultured in 6A media, which includes advanced DMEM/F-12 (Thermo Fisher Scientific, cat. 12634028), 10 mM HEPES (Thermo Fisher Scientific, cat. 15630080), 1X GlutaMAX supplement (Thermo Fisher Scientific, cat. 35050061), 0.1 mg/mL primocin (InvivoGen, San Diego, CA, cat. ant-pm-2), 10% defined fetal bovine serum, heat inactivated (HyClone Laboratories Inc., Logan, UT, cat. SH30070.03HI), 50% L-WRN conditioned media (ATCC, cat. CRL-3276), 1.25 mM N-Acetyl-L-cysteine (Sigma-Aldrich, cat. A9165), 10 mM nicotinamide (Sigma-Aldrich, cat. N0636), 1X B-27 supplement (Thermo Fisher Scientific, cat. 17504044), 1X N-2 supplement (Thermo Fisher Scientific, cat. 17502048), and 10 microM Y-27632 dihydrochloride (Tocris Bioscience, Bristol, United Kingdom, cat. 1254). The 624824-186-R-J2-PDC line was cultured in 6C/Colon 1B media, which includes all 6A media components plus 50 ng/mL human EGF recombinant protein (Thermo Fisher Scientific, cat. PHG0311). […]

[1] = compound alone, run of 05/08/2023
[2] = compound alone, run of 05/09/2023
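Note: spheroids exposed to compound for 7 days before viability read.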
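Throughout, for viability, T/C: 100% = DMSO vehicle-treated spheroids.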

SMILES | viability, T/C (compound 0.00316 µM) | viability, T/C (compound 0.01 µM) | viability, T/C (compound 0.0316 µM) | viability, T/C (compound 0.1 µM) | IC50 (curve of compound) | viability, T/C (compound 0.316 µM) | viability, T/C (compound 1 µM) | viability, T/C (compound 3.16 µM) | viability, T/C (compound 10 µM) | also measured
CC(=O)c1c(C)c2cnc(Nc3ccc(N4CCNCC4)cn3)nc2n(C2CCCC2)c1=O | 97% [middle of 4 runs] | 99.2% [middle of 4 runs] | 108% [middle of 4 runs] | 88.7% [middle of 4 runs] | > 0.1 µM | – | – | – | – | viability, T/C (compound 0.000316 µM): 91.8% [middle of 4 runs]; viability, T/C (compound 0.001 µM): 85.3% [middle of 4 runs]
CC(C)NCC(C(=O)N1CCN(c2ncnc3c2C(C)CC3O)CC1)c1ccc(Cl)cc1 (stereo unspecified) | – | – | 85.8% [middle of 4 runs] | 76.4% [middle of 4 runs] | 376 nM [middle of 4 runs] | 57.3% (2×) and 54.7% and 53.9% | 27.4% [middle of 4 runs] | 17.1% [middle of 4 runs] | 9.96% [middle of 4 runs] | –
CC(C)n1nc(-c2ccc3oc(N)nc3c2)c2c(N)ncnc21 | 78.9% [middle of 4 runs] | 53.9% [middle of 4 runs] | 24% [middle of 4 runs] | 3.78% [middle of 4 runs] | 11.9 nM [middle of 4 runs] | – | – | – | – | viability, T/C (compound 0.001 µM): 76.3% and 86.4% and 84.6% (2×)
CC(Cn1ccc(-c2ccc(C#N)c(Cl)c2)n1)NC(=O)c1cc(C(C)O)[nH]n1 (stereo unspecified) | – | – | 95.5% [middle of 4 runs] | 91.1% [middle of 4 runs] | > 10 µM | 92.4% [middle of 4 runs] | 93.4% [middle of 4 runs] | 87.9% [middle of 4 runs] | 64.3% [middle of 4 runs] | –
CC(Nc1ccc2c(c1)OCCn1cc(N3C(=O)OCC3C(F)F)nc1-2)C(N)=O (stereo unspecified) | 94.1% [middle of 8 runs] | 83.8% [middle of 8 runs] | 56.6% [middle of 8 runs] | 40.9% [middle of 8 runs] | – | 28% [middle of 8 runs] | 21.4% [middle of 8 runs] | – | – | IC50 [1]: 52.5 nM [middle of 8 runs]
CC(Nc1ncnc2nc[nH]c12)c1cc2cccc(Cl)c2c(=O)n1-c1ccccc1 (stereo unspecified) | – | – | 90% [middle of 8 runs] | 97.5% [middle of 8 runs] | – | 99.2% [middle of 8 runs] | 100% [middle of 8 runs] | 87.8% [middle of 8 runs] | 59.8% [middle of 8 runs] | IC50 [2]: > 10 µM
CC1(C)CCC(CN2CCN(c3ccc(C(=O)NS(=O)(=O)c4ccc(NCC5CCOCC5)c([N+](=O)[O-])c4)c(Oc4cnc5[nH]ccc5c4)c3)CC2)=C(c2ccc(Cl)cc2)C1 | – | – | 90.2% [middle of 4 runs] | 87.8% [middle of 4 runs] | – | – | 86.9% [middle of 4 runs] | 63.4% [middle of 4 runs] | – | –
CCCS(=O)(=O)Nc1ccc(F)c(C(=O)c2c[nH]c3ncc(-c4ccc(Cl)cc4)cc23)c1F | – | – | 91.5% [middle of 4 runs] | 91.1% [middle of 4 runs] | 5.64 µM [middle of 4 runs] | 101% (2×) and 103% and 90.9% | 99.5% [middle of 4 runs] | 89.8% [middle of 4 runs] | 16.1% [middle of 4 runs] | –
CCN1CCN(Cc2ccc(Nc3ncc(F)c(-c4cc(F)c5nc(C)n(C(C)C)c5c4)n3)nc2)CC1 | 98.7% [middle of 4 runs] | 99.5% [middle of 4 runs] | 95.2% and 108% (2×) and 103% | 107% [middle of 4 runs] | > 1 µM | 115% [middle of 4 runs] | 122% [middle of 4 runs] | – | – | –
CNC(=O)c1ccc(N2C(=S)N(c3ccc(C#N)c(C(F)(F)F)c3)C(=O)C2(C)C)cc1F | – | – | 96.3% [middle of 4 runs] | 87.5% [middle of 4 runs] | > 10 µM | – | 90.5% [middle of 4 runs] | 82.8% [middle of 4 runs] | 72% [middle of 4 runs] | –
COc1c(OCCCN2CCOCC2)ccc2c3n(c(=NC(=O)c4cnc(N)nc4)nc12)CCN3 | 69.1% [middle of 8 runs] | 46.5% [middle of 8 runs] | 25.6% [middle of 8 runs] | 7.84% [middle of 8 runs] | – | 1.95% [middle of 8 runs] | 1.25% [middle of 7 runs] | – | – | IC50 [2]: 8.74 nM [middle of 8 runs]
C[C@@H](NC(=O)c1ncnc(N)c1Cl)c1ncc(C(=O)Nc2cc(C(F)(F)F)c(Cl)cn2)s1 | – | – | 91.1% [middle of 4 runs] | 89.8% [middle of 4 runs] | – | 90.8% [middle of 4 runs] | 83.6% [middle of 4 runs] | 72.5% [middle of 4 runs] | 49.5% [middle of 4 runs] | –
Cc1nc(NC(=O)N2CCCC2C(N)=O)sc1-c1ccnc(C(C)(C)C(F)(F)F)c1 (stereo unspecified) | – | – | 89.2% [middle of 8 runs] | 86.3% [middle of 8 runs] | – | 57.4% [middle of 8 runs] | 33.8% [middle of 8 runs] | 14.5% [middle of 8 runs] | 3.58% [middle of 7 runs] | IC50 [1]: 475 nM [middle of 7 runs]
Cn1cnc2c(F)c(Nc3ccc(Br)cc3Cl)c(C(=O)NOCCO)cc21 | – | – | – | – | 653 nM [middle of 4 runs] | – | – | – | – | viability, T/C (compound 0.00949 µM): 90.4% [middle of 4 runs]; viability, T/C (compound 0.03 µM): 83.8% [middle of 4 runs]; viability, T/C (compound 0.0949 µM): 80.9% [middle of 4 runs]; viability, T/C (compound 0.3 µM): 64.1% [middle of 4 runs]; viability, T/C (compound 0.949 µM): 42.6% [middle of 4 runs]; viability, T/C (compound 3 µM): 19% [middle of 4 runs]
Cn1nccc1Nc1nccc(-c2ccn(C(CO)c3ccc(Cl)c(F)c3)c(=O)c2)n1 (stereo unspecified) | – | – | 93.8% [middle of 4 runs] | 84.3% [middle of 4 runs] | 502 nM [middle of 4 runs] | 57.5% [middle of 4 runs] | 37.7% [middle of 4 runs] | 26.1% [middle of 4 runs] | 20.1% and 21.8% and 21.4% (2×) | –
Cn1ncnc1[C@H]1c2n[nH]c(=O)c3cc(F)cc(c23)N[C@@H]1c1ccc(F)cc1 | 97.5% [middle of 4 runs] | 98.2% [middle of 4 runs] | 97.7% [middle of 4 runs] | 87% [middle of 4 runs] | > 0.1 µM | – | – | – | – | viability, T/C (compound 0.000316 µM): 92.5% [middle of 4 runs]; viability, T/C (compound 0.001 µM): 93.2% [middle of 4 runs]
